What all share (format): in vitro ADME
One series concerns the target T1, CYP2C9 (Homo sapiens, UniProt P11712).
T1 construct: tissue BD-Gentest 452117; host or cells: human liver microsomes
The experiment in a line: CYP inhibition assay in human liver microsome, CYP2C9. To be noted: HLM, diclofenac substrate; for inhibition at 5 min, 10 µM: human, liver microsomes, probe diclofenac, read-out: CYP inhibition % @10 uM (2C9). The method, then: (§1) This is a high throughput screening assay used for assessment of reversible inhibition of CYP2C9, CYP2D6, and CYP3A4 activity of test compounds in human liver microsome (HLM) in early discovery stage.
(§2) 10 mM DMSO stock solutions of test compounds were diluted in DMSO to generate 2 mM intermediate stock solution. 250 nL of intermediate stock solution were transferred in duplicate into 3 separate 384 well microtitre plates (assay-ready plates). A mixture of HLM and each substrate was made up. 45 μL of HLM substrate mix was then transferred to each well of an assay ready plate and mixed. The negative (solvent) and positive controls (standard inhibitor for each CYP) were included in each assay ready plate. The assay ready plate was warmed to 37° C. in an incubator over 10 minutes. 5 μL pre-warmed NADPH regenerating system was added to each incubation well to start the reaction. Final incubation volume was 50 μL. The assay plate then was placed back in the 37° C. incubator. After 5 minutes incubation (10 minutes for CYP2D6), incubates were quenched by addition of 50 μL quench reagent containing internal standards (400 ng/mL 13C6-4′-OH-Diclofenac, 20 ng/mL D3-Dextrorphan and 20 ng/mL D4-1′OH-Midazolam in acetonitrile). The supernatants were collected for RapidFire/MS/MS analysis.
(§3) RapidFire online solid phase extraction/sample injection system (Agilent) coupled with API4000 triple quadrupole mass spectrometer (AB Sciex) were used for sample analysis. The mobile phase composed of acetonitrile and water supplemented with 0.1% formic acid. A C4 solid phase extraction cartridge is used for sample separation. MS detection is achieved in positive ion MRM mode.
(§4) Peak areas for substrate, metabolite and internal standard are determined using the
(§5) RapidFire integrator software (version 3.6.12009.12296). Peak area ratios (PAR) of metabolite and internal standard (stable-labelled metabolite) are then calculated. The measurement window for each experiment is then defined:
(§6) PAR (0% activity)=average PAR for all incubations containing concentrated inhibitor;
(§7) Par (100% activity)=average PAR for all incubations containing no inhibitor (DMSO controls);
(§8) % Activity (test inhibitor) =[PAR(test inhibitor)-PAR(0% activity)][PAR(100% activity)-PAR(0% activity)];
(§9) % Inhibition (test inhibitor)=100-% Activity (test inhibitor).
(§10) Percentage inhibition data are then reported, in duplicate, for the 3 CYP enzymes.
Background: Liver microsomes are vesicles of endoplasmic reticulum, rich in cytochrome P450 enzymes.

The target in another series is T2, CYP2D6 (Homo sapiens, UniProt P10635).
T2 construct: tissue BD-Gentest 452117; host or cells: human liver microsomes
Put plainly: CYP inhibition assay in human liver microsome, CYP2D6. To be noted: HLM, dextromethorphan substrate; for inhibition at 10 min, 10 µM: human, liver microsomes, probe dextromethorphan, read-out: CYP inhibition % @10 uM (2D6). The method, then: as §1, §2, §3, §4, §5, §6, §7, §8, §9, §10

Series [1] in a line: Human microsome stability assay. To be noted: 1 μM test compound, 0.5 mg/mL protein. As to the method:
The human microsomal stability assay is used for early assessment of metabolic stability of a test compound in human liver microsomes.
Human liver microsomes (Cat. NO.: 452117, Corning, USA; Cat. NO.: H2610, Xenotech, USA) were preincubated with test compound for 10 minutes at 37° C. in 100 mM potassium phosphate buffer, pH 7.4. The reactions were initiated by adding NADPH regenerating system. The final incubation mixtures contained 1 μM test compound, 0.5 mg/mL liver microsomal protein, 1 mM MgCl2, 1 mM NADP, 1 unit/mL isocitric dehydrogenase and 6 mM isocitric acid in 100 mM potassium phosphate buffer, pH 7.4. After incubation times of 0, 3, 6, 9, 15 and 30 minutes at 37° C., 300 μL of cold ACN (including internal standard) was added to 100 μL incubation mixture to terminate the reaction. Following precipitation and centrifugation, the amount of compound remaining in the samples were determined by LC-MS/MS. Controls of no NADPH regenerating system at zero and 30 minutes were also prepared and analyzed. The results were categorized as: low (<7.0 mL/min/kg), medium (7.0˜16.2 mL/min/kg) and high (16.2-23.2 mL/min/kg).

T2 sequence (P10635 whole entry): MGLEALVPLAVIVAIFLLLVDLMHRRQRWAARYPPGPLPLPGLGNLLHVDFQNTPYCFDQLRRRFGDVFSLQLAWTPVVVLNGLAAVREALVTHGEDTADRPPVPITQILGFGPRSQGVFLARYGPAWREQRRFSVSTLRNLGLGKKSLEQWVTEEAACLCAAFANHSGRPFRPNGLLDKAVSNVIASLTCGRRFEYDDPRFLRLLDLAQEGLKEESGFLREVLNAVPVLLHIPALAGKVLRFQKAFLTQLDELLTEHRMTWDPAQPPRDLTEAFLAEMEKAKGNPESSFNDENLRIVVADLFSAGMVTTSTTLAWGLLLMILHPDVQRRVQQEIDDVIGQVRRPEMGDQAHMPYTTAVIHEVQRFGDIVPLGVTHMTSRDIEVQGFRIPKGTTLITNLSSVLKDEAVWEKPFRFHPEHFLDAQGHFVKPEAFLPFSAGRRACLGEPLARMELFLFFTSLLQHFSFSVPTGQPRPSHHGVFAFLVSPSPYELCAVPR
T1 sequence (P11712 whole entry): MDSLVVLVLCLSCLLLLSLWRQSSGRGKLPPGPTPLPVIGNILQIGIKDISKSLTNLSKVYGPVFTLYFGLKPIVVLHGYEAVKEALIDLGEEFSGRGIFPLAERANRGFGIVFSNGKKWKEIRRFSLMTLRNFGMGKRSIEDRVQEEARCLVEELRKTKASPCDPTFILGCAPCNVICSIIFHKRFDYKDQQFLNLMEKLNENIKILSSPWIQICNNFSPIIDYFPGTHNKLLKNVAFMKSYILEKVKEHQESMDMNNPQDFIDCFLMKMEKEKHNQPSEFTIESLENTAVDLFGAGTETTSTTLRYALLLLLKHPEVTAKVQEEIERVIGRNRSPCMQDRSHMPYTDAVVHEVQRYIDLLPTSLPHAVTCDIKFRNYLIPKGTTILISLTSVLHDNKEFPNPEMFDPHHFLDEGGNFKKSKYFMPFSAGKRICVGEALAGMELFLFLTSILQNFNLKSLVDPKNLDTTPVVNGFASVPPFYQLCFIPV

As usually defined, the inhibition is the drop in the measured response relative to a control, in per cent. `C[C@@H]1CN(c2ccc(Cl)c3ncccc23)C[C@H](C(=O)NC2CCCNCC2)O1` (stereo partly drawn) [Example 25, (2R,6R)-N-(azepan-4-yl)-4-(8-chloro-5-quinolyl)-6-methyl-morpholine-2-carboxamide]: the inhibition at 5 min, 10 µM on CYP2C9 was 26%. In addition, the inhibition at 10 min, 10 µM at CYP2D6 came out at 0%. The “clearance in human liver microsomes” value in series [1] was determined as 7.16 mL/min/kg.

`Cc1ccc(N2C[C@@H](C)O[C@@H](C(=O)NCC3CN(C)CCO3)C2)c2cccnc12` (stereo partly drawn) [Example 17, (2R,6R)-6-methyl-N-[(4-methylmorpholin-2-yl)methyl]-4-(8-methyl-5-quinolyl)morpholine-2-carboxamide]: the inhibition at 5 min, 10 µM at CYP2C9 was -4%. For the same molecule, the inhibition at 10 min, 10 µM at CYP2D6 amounted to 3%. The “clearance in human liver microsomes” value in series [1] was determined as 6.15 mL/min/kg.

For `C[C@@H]1CN(c2ccc(C(F)(F)F)c3ncccc23)C[C@H](C(=O)N[C@@H]2CNC[C@@H]2F)O1` (single isomer, unassigned) [Example 2A], the inhibition at 5 min, 10 µM at CYP2C9 stood at 26%. Also, at CYP2D6, the inhibition at 10 min, 10 µM is 9%. In addition, in series [1], the “clearance in human liver microsomes” value was 6.15 mL/min/kg.

For `C[C@@H]1CN(c2ccc(C(F)(F)F)c3ncccc23)C[C@H](C(=O)NC2CCN(C)CC2)O1` [Example 5, (2R,6R)-6-methyl-N-(1-methyl-4-piperidyl)-4-[8-(trifluoromethyl)-5-quinolyl]morpholine-2-carboxamide], on CYP2C9, the inhibition at 5 min, 10 µM is -1%. On CYP2D6, the inhibition at 10 min, 10 µM was determined as 16%. In addition, the “clearance in human liver microsomes” value in series [1] worked out at 6.15 mL/min/kg.

`C[C@@H]1CN(c2ccc(C(F)(F)F)c3ncccc23)C[C@H](C(=O)NC2CC3CCCC(C2)N3)O1` (single isomer, unassigned) [Example 34B]: on CYP2C9, the “CYP inhibition % @10 uM (2C9)” value is recorded as −8%. Further, the “CYP inhibition % @10 uM (2D6)” value at CYP2D6 is −10%. The “clearance in human liver microsomes” value in series [1] is 6.17 mL/min/kg.

Regarding `C[C@@H]1CN(c2ccc(C(F)(F)F)c3ncccc23)C[C@H](C(=O)NC[C@@H]2C[C@@H](F)CN2)O1` [Example 27, (2R,6R)-N-[[(2S,4R)-4-fluoropyrrolidin-2-yl]methyl]-6-methyl-4-[8-(trifluoromethyl)-5-quinolyl]morpholine-2-carboxamide], the inhibition at 5 min, 10 µM on CYP2C9 is -8%. Moreover, the inhibition at 10 min, 10 µM at CYP2D6 amounted to 6%. For the same molecule, the “clearance in human liver microsomes” value in series [1] was 6.15 mL/min/kg.

Consider `C[C@@H]1CN(c2ccc(C(F)(F)F)c3ncccc23)C[C@H](C(=O)NCC(C)(C)N)O1` [Example 6, (2R,6R)-N-(2-amino-2-methyl-propyl)-6-methyl-4-[8-(trifluoromethyl)-5-quinolyl]morpholine-2-carboxamide], for which, at CYP2C9, the inhibition at 5 min, 10 µM is -13%. Further, the inhibition at 10 min, 10 µM at CYP2D6 stood at 13%. Moreover, the “clearance in human liver microsomes” value in series [1] was 6.15 mL/min/kg.

With `C[C@@H]1CN(c2ccc(I)c3ncccc23)C[C@H](C(=O)NC2CCN(C)CC2)O1` [Example 38, (2R,6R)-4-(8-iodo-5-quinolyl)-6-methyl-N-(1-methyl-4-piperidyl)morpholine-2-carboxamide], the inhibition at 5 min, 10 µM on CYP2C9 was -3%. In addition, the inhibition at 10 min, 10 µM at CYP2D6 was -1%. Further, the “clearance in human liver microsomes” value in series [1] is 7.04 mL/min/kg.

In the case of `C[C@@H]1CN(c2ccc(C(F)(F)F)c3ncccc23)C[C@H](C(=O)NC2CC3CNCC32)O1` (single isomer, unassigned) [Example 49C], on CYP2C9, the “CYP inhibition % @10 uM (2C9)” value worked out at 11%. On CYP2D6, the “CYP inhibition % @10 uM (2D6)” value is 8%. For the same molecule, the “clearance in human liver microsomes” value in series [1] turned out to be 6.15 mL/min/kg.

The record behind these values is patent US20220363665A1, “QUINOLINE COMPOUNDS FOR THE TREATMENT OF AUTOIMMUNE DISEASE” (Hoffmann-La Roche Inc., priority 2019, published 2022).
